Test results taken from patent US8299083B2, “PDE5 inhibitor compositions and methods for treating cardiac indications” (The Johns Hopkins University, priority 2004, dated 2012).

Key:
NFAT = NFAT promoter activation in neonatal rat myocytes (β-galactosidase / luciferase reporter); format: cell-based; conditions: stimulated by PE or BayK8644, 1 μM sildenafil
Experimental: Rat neonatal cardiac myocytes were isolated from 1- to 2-day-old Sprague-Dawley rats as described^50. […] Sigma Chemical (St. […] To assess NFAT activation, cells were transfected with adenovirus expressing the three NFAT-binding sites linked to β-galactosidase ([…]), using previously described methods^72. Additional studies were performed using an alternative reporter adenovirus encoding luciferase driven by the NFAT promoter. This was performed twenty-four hours prior to PE, BayK8644, or activated calcineurin stimulation. The latter was achieved by a co-transfection with a replication-deficient adenovirus encoding a Ca^2+-independent, constitutively active, truncated mouse calcineurin […]^72). […] After an additional forty-eight hours, NFAT activation was assessed by β-galactosidase histology/activity or luciferase activity. […] Luciferase activity was assayed by commercial kit (Stratagene, La Jolla, Calif.) and read on a plate luminometer.

GSK3β = GSK3β phosphorylation in TAC hearts (Western blot); format: in vivo, mouse
Experimental: Protein was prepared from snap-frozen heart tissue using extraction buffer as described previously^90. Antibodies included calcineurin (1:2000 dilution, BD Transduction Laboratories (San Diego, Calif.), GSK3β, Ser9-phospho-GSK313, Akt, Ser473-phospho-Akt, ERK, Thr202/Thr204-phospho-ERK (1:1000 dilution, Cell Signaling Technology, Beverly, Mass.). Primary antibody binding was visualized by horse radish peroxidase-conjugated secondary antibodies and enhanced chemiluminescence (Pierce, Rockford, Ill.).

NOS3 = NOS3 dimer/monomer Western blot in TAC hearts; format: in vivo, mouse; conditions: 3 weeks TAC
[1] = test system: healthy human volunteers, dobutamine-stimulated cardiac function; test: Dobutamine stress test before and after oral study drug, randomized double-blind placebo-controlled; format: in vivo
Description: Forty healthy volunteers were recruited from the general population in response to advertisements posted in the surrounding community. Subjects were screened by medical history, physical examination, and transthoracic echocardiogram. Individuals with heart disease, atherosclerosis, hypertension, diabetes mellitus, pulmonary hypertension, renal or hepatic disease, smoking, pregnancy, or under treatment with nitrates, adrenergic-blocking drugs, or medicines known to interfere with sildenafil pharmacokinetics were excluded. […] All subjects were instructed to fast for >6 hours prior to study. […] Intravenous dobutamine (5 μg/kg/min) was then administered for 5 minutes to achieve a stable response, and measurements repeated (D1). Dobutamine was discontinued, and 15 minutes provided to return to the baseline state. […] Data were again recorded for a second baseline (B2), and during a second dobutamine infusion (D2) using the identical protocol as for the first test. Systolic function was determined by cardiac-specific indexes that combined measurements of pressure, dimension, and flow. Arterial pressure was determined by an oscillometric arm cuff ([…] 2-dimensional echo-Doppler measurements by an Agilent Sonos 5500 (Philips, The Netherlands) employing a 3 MHz probe. All echo-Doppler measurements were digitally acquired to optical disc and analyzed offline by a single blinded investigator. Each measurement reflected the average of at least 3 separate beats. Aortic flow was equal to the velocity time-integral from pulse-wave Doppler in the left ventricular outflow tract multiplied by cross sectional […].^83 Stroke volume, peak, and mean flow were determined from this waveform. Cardiac output was the product of heart rate and stroke volume. Systemic vascular resistance was the ratio of mean arterial pressure (1⁄3 pulse pressure+diastolic blood pressure) to cardiac output. Cardiac contractility was assessed by several load-independent indexes. […] Load-independent secondary outcome contractility parameters were mean ventricular power index and the end-systolic pressure/volume ratio, an approximation for ventricular end systolic elastance. Other secondary outcome variables included routine measures of cardiac systolic and diastolic function. Ejection fraction was determined from cardiac end-diastolic and systolic volumes determined by Simpson's method using apical 4- and 2-chamber views. End-diastolic volume was equal to stroke volume (from Doppler) divided by ejection fraction, with end-systolic volume equal to the difference of the former and latter. Pulse-wave Doppler spectra of transmittal inflow and tissue Doppler imaging of the lateral mitral annular (E') velocities were used to assess diastolic function.^89 The ratio of E/E' was determined as a surrogate marker of left ventricular filling pressures as previously validated^90. Isovolumic relaxation time was measured by continuous wave Doppler as the time between aortic flow cessation and onset of mitral inflow. All statistical analysis was performed using Systat® software. Results are expressed as mean±standard deviation. […] The primary test was a test between group analysis of whether sildenafil (versus placebo) altered the disparity between the first and second dobutamine response, and determined by a three-way interaction term that included each grouping factor. […] Within group analysis was also performed using a 2-tailed Student's paired t-test to assess individual dobutamine responses ([…]2), and a 2-way ANOVA to test whether study drug altered this response within in each group. Categorical variables were compared using the Chi-squared test.

RhoA, ROCK1 and ROCK2 = test: RhoA and Rho kinase expression and activity in TAC hearts; format: in vivo, mouse; conditions: 3 weeks TAC
Experimental: RhoA activity assay was performed by immunoprecipitation using a commercially available immobilized antibody (SEIZE X IP, Pierce Biotechnology, IL). The antibody used was a rabbit polyclonal antibody raised against RboA (Upstate, NY [1:2500]) and subsequent commercial activity assay according to manufacturer's specification (Upstate Biotechnology, NY).
Protein lysates from whole myocardium and isolated cardiac myocytes were obtained using lysis buffer (Cell Signaling Technology, Beverly, Mass.) with mini-protease inhibitor (Roche, Ind.) and 5% Triton (Sigma Chemical (St. Louis, Mo.). Following 12,000 g centrifugation for 30 minutes, protein was quantified (Pierce Rockford, Ill.), NUPage LDS sample buffer added (Biorad, Hercules, Calif.), and lysates electrophoresed on NuPAGE 4-12% Bis-Tris polyacrylamide gels (Invitrogen, San Diego, Calif.). Membranes were incubated with rabbit polyclonal antibodies raised against ROCK1 or ROCK2 (Cell Signaling Technology, Beverly, Mass.) [1:3,000].

[2] = dobutamine-induced change after sildenafil
[3] = resting baseline after vs before 100 mg oral sildenafil
[4] = second versus initial dobutamine response

NFAT promoter activation (NFAT): suppressed activation
Compound: CCCc1nn(C)c2c(=O)[nH]c(-c3cc(S(=O)(=O)N4CCN(C)CC4)ccc3OCC)nc12 [sildenafil]
GSK3β activation (GSK3β; 1-week TAC): remained unchanged
Akt and GSK3β activation (GSK3β; 9-weeks TAC): reduced both
NOS3 dimer (280 kD) level (NOS3): prevented the loss of NOS dimer
dobutamine-induced change in ventricular end-systolic elastance ([1]; after sildenafil 100 mg oral): 0.84±0.9 mmHg/ml
dobutamine-induced increase in ejection fraction (absolute change) ([1]; after sildenafil 100 mg oral): 4±5%
dobutamine-induced increase in heart rate ([1]; after sildenafil 100 mg oral): +14.5±4.7 bpm
dobutamine-mediated drop in peripheral resistance ([1]; after sildenafil 100 mg oral): not modified
diastolic changes induced by dobutamine ([1]; compared to placebo): did not significantly alter diastolic changes induced by dobutamine
A velocity, D2 − B2 [1, 2]: 11 ± 7 cm/s
E velocity, D2 − B2 [1, 2]: 12 ± 11 cm/s
E′ velocity, D2 − B2 [1, 2]: 1.5 ± 2.4 cm/s
IVRT, D2 − B2 [1, 2]: −20 ± 13
A velocity, Δ(B2 − B1) [1, 3]: -3 ± 8 cm/s
Diastolic Blood Pressure, Δ(B2 − B1) [1, 3]: −6 ± 5 mmHg
E velocity, Δ(B2 − B1) [1, 3]: -4 ± 12 cm/s
Ejection Fraction, Δ(B2 − B1) [1, 3]: +6 ± 2
End Systolic Elastance, Δ(B2 − B1) [1, 3]: +0.4 ± 0.2 mmHg/mL
E′ velocity, Δ(B2 − B1) [1, 3]: +0 ± 3 cm/sec
Heart Rate, Δ(B2 − B1) [1, 3]: +0 ± 3 min^−1
IVRT, Δ(B2 − B1) [1, 3]: +8 ± 12 msec
Stroke Volume, Δ(B2 − B1) [1, 3]: +5 ± 6 mL
Systolic Blood Pressure, Δ(B2 − B1) [1, 3]: −6 ± 3 mmHg
Total Peripheral Resistance, Δ(B2 − B1) [1, 3]: −170 ± 60 dyne * s/cm^5
reduction of dobutamine-induced ejection fraction change [1, 4]: 66±64%
reduction of dobutamine-induced end-systolic elastance change [1, 4]: 56±63%
reduction of dobutamine-induced peak power change [1, 4]: 32±34%
adverse events ([1]; single 100 mg oral dose, healthy volunteers): no adverse events
RhoA and Rho-kinase expression and activity (RhoA, ROCK1 and ROCK2): inhibits RhoA, Rho-Kinase1 (ROCK1) and Rho-Kinase2 protein expression and activity
